In patent publication US12077503B2, “Substituted cyclic amides and their use as herbicides” (FMC CORPORATION, priority 2015, dated 2024):

Columns and labels:
Type in all cases: in vivo
Kochia (Kochia scoparia) [1] = experiment: Test A postemergence; conditions: Bassia scoparia, post-emergence, 240 h, postemergence
How it was run: (§1)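 Each rating is a visual injury score from 0 to 100 given about 10 d after treatment, judged against untreated controls kept alongside in the greenhouse. In loam soil–sand blend, seeds got a preemergence directed soil spray, while postemergence plants were 2 to 10 cm tall at spraying.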

[2] = test system: giant foxtail (Setaria faberii); experiment: Test A postemergence; conditions: Setaria faberi, post-emergence, 240 h, postemergence
How it was run: as §1

[3] = test system: blackgrass (Alopecurus myosuroides); experiment: Test A postemergence; conditions: Alopecurus myosuroides, post-emergence, 240 h, postemergence
How it was run: as §1

[4] = test system: wheat (Triticum aestivum); experiment: Test A postemergence; conditions: Triticum aestivum, post-emergence, 240 h, postemergence
How it was run: as §1

[5] = test system: pigweed (Amaranthus retroflexus); experiment: Test A postemergence; conditions: Amaranthus retroflexus, post-emergence, 240 h, postemergence
How it was run: as §1

[6] = test system: Galium (catchweed bedstraw, Galium aparine); experiment: Test A postemergence; conditions: Galium, post-emergence, 240 h, postemergence
How it was run: as §1

[7] = test system: ryegrass, Italian (Italian ryegrass, Lolium multiflorum); experiment: Test A postemergence; conditions: Lolium multiflorum, post-emergence, 240 h, postemergence
How it was run: as §1

corn (Zea mays) = experiment: Test A postemergence; conditions: Zea mays, post-emergence, 240 h, postemergence
How it was run: as §1

[8] = test system: ragweed (common ragweed, Ambrosia elatior); experiment: Test A postemergence; conditions: Ambrosia artemisiifolia, post-emergence, 240 h, postemergence
How it was run: as §1

Kochia (Kochia scoparia) [9] = experiment: Test A preemergence; conditions: Bassia scoparia, pre-emergence, 240 h, 125 g ai/ha, preemergence; visual injury rating, 0 to 100 scale where 0 is no effect and 100 is complete control; approximately 10 d; read-out: Kochia plant response rating
How it was run: as §1

[10] = test system: giant foxtail (Setaria faberii); experiment: Test A preemergence; conditions: Setaria faberi, pre-emergence, 240 h, preemergence, 0 to 100 scale where 0 is no effect and 100 is complete control, read-out: Foxtail, Giant plant response rating
How it was run: as §1

[11] = test system: barnyardgrass (Echinochloa crus-galli); experiment: Test A preemergence; conditions: Echinochloa crus-galli, pre-emergence, 240 h, preemergence, 0 to 100 scale where 0 is no effect and 100 is complete control, read-out: Barnyardgrass plant response rating
How it was run: as §1

[12] = test system: pigweed (Amaranthus retroflexus); experiment: Test A preemergence; conditions: Amaranthus retroflexus, pre-emergence, 240 h, preemergence, 0 to 100 scale where 0 is no effect and 100 is complete control, read-out: Pigweed plant response rating
[13] = test system: ryegrass, Italian (Italian ryegrass, Lolium multiflorum); experiment: Test A preemergence; conditions: Lolium multiflorum, pre-emergence, 240 h, preemergence, 0 to 100 scale where 0 is no effect and 100 is complete control, read-out: Ryegrass, Italian plant response rating
How it was run: as §1

[14] = test system: ragweed (common ragweed, Ambrosia elatior); experiment: Test A preemergence; conditions: Ambrosia artemisiifolia, pre-emergence, 240 h, preemergence, 0 to 100 scale where 0 is no effect and 100 is complete control, read-out: Ragweed plant response rating
How it was run: as §1

[15] = 125 g ai/ha, visual injury rating, approximately 10 d

COc1ccc([C@H]2CN(C)C(=O)[C@@H]2C(=O)Nc2ccccc2SC)c(OC)c1 [Compound 1216]
40%: pest or weed control at 500 g/ha (Kochia (Kochia scoparia) [1]; 500 g ai/ha, 0 to 100 scale, 0 is no effect, 100 is complete control, read-out: Kochia plant response rating)
0%: pest or weed control at 125 g/ha (Kochia (Kochia scoparia) [1]; 125 g ai/ha, visual injury vs untreated controls after approx. 10 d, 0 = no effect, 100 = complete control, read-out: Kochia plant response rating (0 to 100 scale)) | pest or weed control at 125 g/ha ([3]; 125 g ai/ha, visual injury vs untreated controls after approx. 10 d, 0 = no effect, 100 = complete control, read-out: Blackgrass plant response rating (0 to 100 scale)) | pest or weed control at 500 g/ha ([3]; 500 g ai/ha, 0 to 100 scale, 0 is no effect, 100 is complete control, read-out: Blackgrass plant response rating) | plant injury at 125 g/ha ([4]; 125 g ai/ha, visual injury vs untreated controls after approx. 10 d, 0 = no effect, 100 = complete control, read-out: Wheat plant response rating (0 to 100 scale)) | plant injury at 500 g/ha ([4]; 500 g ai/ha, 0 to 100 scale, 0 is no effect, 100 is complete control, read-out: Wheat plant response rating) | pest or weed control at 125 g/ha ([5]; 125 g ai/ha, visual injury vs untreated controls after approx. 10 d, 0 = no effect, 100 = complete control, read-out: Pigweed plant response rating (0 to 100 scale)) | pest or weed control at 500 g/ha ([5]; 500 g ai/ha, 0 to 100 scale, 0 is no effect, 100 is complete control, read-out: Pigweed plant response rating) | pest or weed control at 125 g/ha ([6]; 125 g ai/ha, visual injury vs untreated controls after approx. 10 d, 0 = no effect, 100 = complete control, read-out: Galium plant response rating (0 to 100 scale)) | pest or weed control at 500 g/ha ([6]; 500 g ai/ha, 0 to 100 scale, 0 is no effect, 100 is complete control, read-out: Galium plant response rating) | pest or weed control at 125 g/ha ([7]; 125 g ai/ha, visual injury vs untreated controls after approx. 10 d, 0 = no effect, 100 = complete control, read-out: Ryegrass, Italian plant response rating (0 to 100 scale)) | pest or weed control at 500 g/ha ([7]; 500 g ai/ha, 0 to 100 scale, 0 is no effect, 100 is complete control, read-out: Ryegrass, Italian plant response rating) | plant injury at 125 g/ha (corn (Zea mays); 125 g ai/ha, visual injury vs untreated controls after approx. 10 d, 0 = no effect, 100 = complete control, read-out: Corn plant response rating (0 to 100 scale)) | plant injury at 500 g/ha (corn (Zea mays); 500 g ai/ha, 0 to 100 scale, 0 is no effect, 100 is complete control, read-out: Corn plant response rating) | pest or weed control at 125 g/ha ([8]; 125 g ai/ha, visual injury vs untreated controls after approx. 10 d, 0 = no effect, 100 = complete control, read-out: Ragweed plant response rating (0 to 100 scale)) | pest or weed control at 500 g/ha ([8]; 500 g ai/ha, 0 to 100 scale, 0 is no effect, 100 is complete control, read-out: Ragweed plant response rating) | pest or weed control at 125 g/ha (Kochia (Kochia scoparia) [9]) | pest or weed control at 125 g/ha [11, 15] | pest or weed control at 125 g/ha [12, 15] | pest or weed control at 500 g/ha ([12]; 500 g ai/ha) | pest or weed control at 125 g/ha [13, 15] | pest or weed control at 500 g/ha ([13]; 500 g ai/ha) | pest or weed control at 125 g/ha [14, 15]
90%: pest or weed control at 500 g/ha ([11]; 500 g ai/ha)
30%: pest or weed control at 125 g/ha [10, 15]
20%: pest or weed control at 125 g/ha ([2]; 125 g ai/ha, visual injury vs untreated controls after approx. 10 d, 0 = no effect, 100 = complete control, read-out: Foxtail, Giant plant response rating (0 to 100 scale)) | pest or weed control at 500 g/ha ([14]; 500 g ai/ha)
80%: pest or weed control at 500 g/ha ([2]; 500 g ai/ha, 0 to 100 scale, 0 is no effect, 100 is complete control, read-out: Foxtail, Giant plant response rating) | pest or weed control at 500 g/ha ([10]; 500 g ai/ha)
